Tested on: Human Mammary Epithelial (HME) 50 HT cell line
Test: Multiple nuclear divisions in cultured HME 50 HT cells
Format: cell-based
Settings: HME 50 HT cells in serum-free medium; FIGS. 3 and 4
Description: Such a culture medium was treated with the composition comprising the compound of formula II obtained in the Example 1 and the compound of formula III obtained in the Examples 2 to 5, respectively.
And, it was found from the photomicrographs that the cells appeared very healthy and unstressed.

Row | Structure (SMILES) | multiple nuclear divisions in the cell (stained-cell image)
1 | CCC1(N)C(=O)COC=C1C (centres unmarked) [compound of formula III] | multiple nuclear divisions occurred in the cell
2 | C=CC1(N)C(=O)COC=C1C (centres unmarked) [compound of formula II] | multiple nuclear divisions occurred in the cell

Source: patent publication US20130030048A1, “COMPOSITION FOR INDUCING MULTIPLE NUCLEAR DIVISION OF CELLS” (priority 2010, published 2013)
